Laboratory results as given in patent publication US10123981B2, “Methods for treatment of pelvic pain and/or comorbid conditions” (priority 2012, dated 2018).
Where two headings read alike, the source gives them in different places.

What was measured:
IC = settings: cited from earlier work
[1] = In vitro release of lidocaine from silicone tube devices (diffusion through wall / apertures); type: physicochemical; settings: in vitro in water at about 37° C.; tubes with or without apertures
Method: A study was performed to determine the feasibility of delivering drug through the wall of a drug reservoir via diffusion. […] Some of the devices included an aperture formed through the tube wall, the aperture having a diameter of 150 μm. […] The devices were tested in vitro in water at about 37° C. […] Another study was performed to investigate the feasibility of delivering drug from a device through both a wall of a drug reservoir and from an aperture in the wall of the drug reservoir. Devices were formed form silicone tubes having a length of about 3 cm. […] The devices were tested in vitro in water at about 37° C.

CCN(CC)CC(=O)Nc1c(C)cccc1C [lidocaine]
mean pain score (IC; after second instillation): 1.2 | mean pain score (IC; immediately following treatment (prior to treatment 6.0)): 1.8 | duration of effect (IC; single instillation): approximately 24 hours | mean pain score (IC; the next day): 3.7

CCN(CC)CC(=O)Nc1c(C)cccc1C [lidocaine base]
release of drug from silicone tube [1]: can be released from a silicone tube without any apertures
